Results published in patent EP0007672A1, “Isocyanoalkenes, process and useful intermediates for their preparation, pharmaceutical and fungicidal preparations containing those isocyanoalkenes and the use of the fungicidal preparations in agriculture” (GIST-BROCADES N.V., priority 1978, dated 1980).
≈ marks a conversion by molar mass, not a printed value. Where two headings read alike, the source gives them in different places.

Columns and labels:
Experiment in all cases: MIC (Minimum Inhibitory Concentration)
Format in all cases: cell-based
Candida albicans = system: Candida albicans
Excerpt: (§1) In addition they may be used for combatting plant diseases, in particular as fungicides. A list of MIC (Minimum Inhibitory Concentration) values for a number of microorganisms is listed herebelow. The figures in the column headings refer to the compounds prepared according to the experimental examples in comparison with the spectrum of 1-[2-(2,4-dichlorophenyl)-2-{(2,4-dichlorophenyl)-methoxy} -ethyl7-1H-imidazole (better known under the name of miconazole, c.f. Merck Index 9th Ed. page 6047) or natamycin (pimaricin, c.f. Merck Index 9th Ed. page 7233).

Trichophyton equinum = system: Trichophyton equinum
Excerpt: as §1

[1] = system: Streptococcus haemolyticus; conditions: read-out: MIC values
Excerpt: as §1

Trichophyton tonsurans = Trichophyton tonsurans 561-50; read-out: MIC values
Excerpt: as §1

[2] = system: Trichophyton schoenleinii; conditions: Trichophyton schoenleinii 435-63; read-out: MIC values
Excerpt: as §1

Trichophyton violoceum = Trichophyton violoceum 442-62; read-out: MIC values
Excerpt: as §1

Trichophyton quickeaneum = Trichophyton quickeaneum A 2040; read-out: MIC values
Excerpt: as §1

[3] = system: Trichophyton mentagrophytus
Excerpt: as §1

Trichophyton rubrum = system: Trichophyton rubrum
Excerpt: as §1

Pasteurella multocida = conditions: read-out: MIC values
Excerpt: as §1

[4] = Candida albicans A 7, read-out: MIC values
[5] = Candida albicans A 3140, read-out: MIC values
[6] = Candida albicans A 3141, read-out: MIC values
[7] = Candida albicans A 3142, read-out: MIC values
[8] = Candida albicans A 3143, read-out: MIC values
[9] = Candida albicans A 3144, read-out: MIC values
[10] = Candida albicans A 3145, read-out: MIC values
[11] = Candida albicans A 3165, read-out: MIC values
[12] = Candida albicans A 3166, read-out: MIC values
[13] = Candida albicans A 3167, read-out: MIC values
[14] = Candida albicans A 3168, read-out: MIC values
[15] = Candida albicans A 3169, read-out: MIC values
[16] = Candida albicans A 3171, read-out: MIC values
[17] = Candida albicans A 3184, read-out: MIC values
[18] = Candida albicans A 3190, read-out: MIC values
[19] = Candida albicans A 3191, read-out: MIC values
[20] = Candida albicans A 3192, read-out: MIC values
[21] = Candida albicans A 3194, read-out: MIC values
[22] = Candida albicans A 3196, read-out: MIC values
[23] = Trichophyton equinum 182-76, read-out: MIC values
[24] = Trichophyton equinum 856-71, read-out: MIC values
[25] = Streptococcus haemolyticus A 1088
[26] = Trichophyton mentagrophytus 367-68, read-out: MIC values
[27] = Trichophyton mentagrophytus 421-67, read-out: MIC values
[28] = Trichophyton mentagrophytus A 3252, read-out: MIC values
[29] = Trichophyton mentagrophytus R 177, read-out: MIC values
[30] = Trichophyton mentagrophytus R 178, read-out: MIC values
[31] = Trichophyton mentagrophytus RRL 305, read-out: MIC values
[32] = Trichophyton rubrum 218-65, read-out: MIC values
[33] = Trichophyton rubrum 494-62, read-out: MIC values
[34] = Trichophyton rubrum A 810, read-out: MIC values

[C-]#[N+]C(=C(C)c1ccccc1)S(=O)(=O)c1ccc(C)cc1 [Example 12, 2-phenyl-1-isocyano-1-(4-toluenesulphonyl)-1-propene]
MIC (Candida albicans; [4]): 3 µg/mL (≈ 10.1 µM) | MIC (Candida albicans; [5]): 6 µg/mL (≈ 20.2 µM) | MIC (Candida albicans; [6]): 6 µg/mL (≈ 20.2 µM) | MIC (Candida albicans; [7]): 6 µg/mL (≈ 20.2 µM) | MIC (Candida albicans; [8]): 6 µg/mL (≈ 20.2 µM) | MIC (Candida albicans; [9]): 3 µg/mL (≈ 10.1 µM) | MIC (Candida albicans; [10]): 3 µg/mL (≈ 10.1 µM) | MIC (Candida albicans; [11]): 3 µg/mL (≈ 10.1 µM) | MIC (Candida albicans; [12]): 3 µg/mL (≈ 10.1 µM) | MIC (Candida albicans; [13]): 3 µg/mL (≈ 10.1 µM) | MIC (Candida albicans; [14]): 6 µg/mL (≈ 20.2 µM) | MIC (Candida albicans; [15]): 6 µg/mL (≈ 20.2 µM) | MIC (Candida albicans; [16]): 6 µg/mL (≈ 20.2 µM) | MIC (Candida albicans; [17]): 6 µg/mL (≈ 20.2 µM) | MIC (Candida albicans; [18]): 6 µg/mL (≈ 20.2 µM) | MIC (Candida albicans; [19]): 6 µg/mL (≈ 20.2 µM) | MIC (Candida albicans; [20]): 3 µg/mL (≈ 10.1 µM) | MIC (Candida albicans; [21]): 3 µg/mL (≈ 10.1 µM) | MIC (Candida albicans; [22]): 6 µg/mL (≈ 20.2 µM) | MIC (Trichophyton equinum; [23]): 12.5 µg/mL (≈ 42 µM) | MIC (Trichophyton equinum; [24]): 6 µg/mL (≈ 20.2 µM) | MIC [1, 25]: 50 µg/mL (≈ 168 µM) | MIC (Trichophyton tonsurans): 0.1 µg/mL (≈ 0.336 µM) | MIC [2]: 1.5 µg/mL (≈ 5.04 µM) | MIC (Trichophyton violoceum): 3 µg/mL (≈ 10.1 µM) | MIC (Trichophyton quickeaneum): 6 µg/mL (≈ 20.2 µM) | MIC [3, 26]: 12.5 µg/mL (≈ 42 µM) | MIC [3, 27]: 6 µg/mL (≈ 20.2 µM) | MIC [3, 28]: 6 µg/mL (≈ 20.2 µM) | MIC [3, 29]: 3 µg/mL (≈ 10.1 µM) | MIC [3, 30]: 6 µg/mL (≈ 20.2 µM) | MIC [3, 31]: 25 µg/mL (≈ 84.1 µM) | MIC (Trichophyton rubrum; [32]): 3 µg/mL (≈ 10.1 µM) | MIC (Trichophyton rubrum; [33]): 6 µg/mL (≈ 20.2 µM) | MIC (Trichophyton rubrum; [34]): 3 µg/mL (≈ 10.1 µM) | MIC (Pasteurella multocida; Pasteurella multocida A 723): 3 µg/mL (≈ 10.1 µM)

[C-]#[N+]C(C1=CCSCC1)S(=O)(=O)c1ccc(C)cc1 (stereo not drawn) [Example 16b, a-(3,4-dehydrothian-4-yl)-a-(4-toluenesulphonyl)-methylisocyanide]
MIC (Candida albicans; [4]): 3 µg/mL (≈ 10.2 µM) | MIC (Candida albicans; [5]): 3 µg/mL (≈ 10.2 µM) | MIC (Candida albicans; [6]): 3 µg/mL (≈ 10.2 µM) | MIC (Candida albicans; [7]): 3 µg/mL (≈ 10.2 µM) | MIC (Candida albicans; [8]): 3 µg/mL (≈ 10.2 µM) | MIC (Candida albicans; [9]): 6 µg/mL (≈ 20.4 µM) | MIC (Candida albicans; [10]): 6 µg/mL (≈ 20.4 µM) | MIC (Candida albicans; [11]): 3 µg/mL (≈ 10.2 µM) | MIC (Candida albicans; [12]): 3 µg/mL (≈ 10.2 µM) | MIC (Candida albicans; [13]): 3 µg/mL (≈ 10.2 µM) | MIC (Candida albicans; [14]): 3 µg/mL (≈ 10.2 µM) | MIC (Candida albicans; [15]): 3 µg/mL (≈ 10.2 µM) | MIC (Candida albicans; [16]): 3 µg/mL (≈ 10.2 µM) | MIC (Candida albicans; [17]): 3 µg/mL (≈ 10.2 µM) | MIC (Candida albicans; [18]): 3 µg/mL (≈ 10.2 µM) | MIC (Candida albicans; [19]): 6 µg/mL (≈ 20.4 µM) | MIC (Candida albicans; [20]): 3 µg/mL (≈ 10.2 µM) | MIC (Candida albicans; [21]): 3 µg/mL (≈ 10.2 µM) | MIC (Candida albicans; [22]): 3 µg/mL (≈ 10.2 µM) | MIC (Trichophyton equinum; [23]): 6 µg/mL (≈ 20.4 µM) | MIC (Trichophyton equinum; [24]): 12.5 µg/mL (≈ 42.6 µM) | MIC [1, 25]: 50 µg/mL (≈ 170 µM) | MIC (Trichophyton tonsurans): 0.8 µg/mL (≈ 2.73 µM) | MIC [2]: 1.5 µg/mL (≈ 5.11 µM) | MIC (Trichophyton violoceum): 3 µg/mL (≈ 10.2 µM) | MIC (Trichophyton quickeaneum): 6 µg/mL (≈ 20.4 µM) | MIC [3, 26]: 6 µg/mL (≈ 20.4 µM) | MIC [3, 27]: 6 µg/mL (≈ 20.4 µM) | MIC [3, 28]: 12.5 µg/mL (≈ 42.6 µM) | MIC [3, 29]: 6 µg/mL (≈ 20.4 µM) | MIC [3, 30]: 12.5 µg/mL (≈ 42.6 µM) | MIC [3, 31]: 12.5 µg/mL (≈ 42.6 µM) | MIC (Trichophyton rubrum; [32]): 1.5 µg/mL (≈ 5.11 µM) | MIC (Trichophyton rubrum; [33]): 12.5 µg/mL (≈ 42.6 µM) | MIC (Trichophyton rubrum; [34]): 1.5 µg/mL (≈ 5.11 µM) | MIC (Pasteurella multocida; Pasteurella multocida A 723): 3 µg/mL (≈ 10.2 µM)

[C-]#[N+]C(=C1CCCCCC1)S(=O)(=O)c1ccc(C)cc1 [Example 18a, a-cycloheptylidene-a-(4-toluenesulphonyl)-methylisocyanide]
MIC (Candida albicans; read-out: MIC values, Candida albicans A 7): 1.5 µg/mL (≈ 5.18 µM) | MIC (Candida albicans; read-out: MIC values, Candida albicans A 3140): 1.5 µg/mL (≈ 5.18 µM) | MIC (Candida albicans; read-out: MIC values, Candida albicans A 3141): 3 µg/mL (≈ 10.4 µM) | MIC (Candida albicans; read-out: MIC values, Candida albicans A 3142): 1.5 µg/mL (≈ 5.18 µM) | MIC (Candida albicans; read-out: MIC values, Candida albicans A 3143): 1.5 µg/mL (≈ 5.18 µM) | MIC (Candida albicans; read-out: MIC values, Candida albicans A 3144): 3 µg/mL (≈ 10.4 µM) | MIC (Candida albicans; read-out: MIC values, Candida albicans A 3145): 3 µg/mL (≈ 10.4 µM) | MIC (Candida albicans; read-out: MIC values, Candida albicans A 3165): 1.5 µg/mL (≈ 5.18 µM) | MIC (Candida albicans; read-out: MIC values, Candida albicans A 3166): 3 µg/mL (≈ 10.4 µM) | MIC (Candida albicans; read-out: MIC values, Candida albicans A 3167): 0.75 µg/mL (≈ 2.59 µM) | MIC (Candida albicans; read-out: MIC values, Candida albicans A 3168): 0.75 µg/mL (≈ 2.59 µM) | MIC (Candida albicans; read-out: MIC values, Candida albicans A 3169): 3 µg/mL (≈ 10.4 µM) | MIC (Candida albicans; read-out: MIC values, Candida albicans A 3171): 1.5 µg/mL (≈ 5.18 µM) | MIC (Candida albicans; read-out: MIC values, Candida albicans A 3184): 3 µg/mL (≈ 10.4 µM) | MIC (Candida albicans; read-out: MIC values, Candida albicans A 3190): 3 µg/mL (≈ 10.4 µM) | MIC (Candida albicans; read-out: MIC values, Candida albicans A 3191): 3 µg/mL (≈ 10.4 µM) | MIC (Candida albicans; read-out: MIC values, Candida albicans A 3192): 1.5 µg/mL (≈ 5.18 µM) | MIC (Candida albicans; read-out: MIC values, Candida albicans A 3194): 1.5 µg/mL (≈ 5.18 µM) | MIC (Candida albicans; read-out: MIC values, Candida albicans A 3196): 3 µg/mL (≈ 10.4 µM) | MIC ([1]; Streptococcus): 10 µg/mL (≈ 34.6 µM) | MIC (Pasteurella multocida; Pasteurella multocida): 20 µg/mL (≈ 69.1 µM)
